What was measured:
[1] = system: normal drug-sensitive strain of Plasmodium berghei; experiment: Plasmodium berghei in mice, single subcutaneous dose 72 h post infection, mean survival time and cures; format: in vivo; conditions: Table I; for MST after single s.c. dose (extension of survival time over the controls): animals not cured, control MST 6.1-6.3 days; for MST after single s.c. dose: animals cured (C): five animal group
Procedure: Compounds of the invention were tested against a normal drug-sensitive strain of Plasmodium berghei in mice by the parenteral route by a procedure described in J. Med. Chem., 1043 (1967). The compounds were dissolved or suspended in sesame or peanut oil and were administered to mice in a single subcutaneous dose seventy-two hours post infection. Extension of the mean survival time of the treated mice is interpreted as evidence of anti-malarial activity. Compounds are arbitrarily considered to be "active" when they produce at least a 100 percent increase in the mean survival time of treated mice. Animals that survive to sixty days are considered "cured" (termed "C" in Tables I and II). The means survival time (MST) of infected control mice ranges from 6.1-6.3 days while the numbers in parentheses in Tables I and II indicate extension of survival time over the controls as an average for those animals of the five animal group not "cured".

[2] = system: chloroquine-pyrimethamine-resistant Vietnam Smith strain of P. Falciparum; experiment: Owl monkey infection with P. falciparum trophozoites, Vietnam Smith strain; format: in vivo, owl monkeys; conditions: for cleared the parasitemia: orally at 1.0 mg/kg/day for three days; for curative: orally at 2.0 mg/kg/day for a three day period
Procedure: (§1) Studies were also conducted with infections resulting from inoculations of owl monkeys with trophozoites of the chloroquine-pyrimethamine-resistant Vietnam Smith strain of P. Falciparum; the chloroquine-quinine-resistant, pyrimethamine-susceptible Vietnam Oak Knoll strain of P. Falciparum; or the pyrimethamine-resistant Uganda Palo Alto strain of P. Falciparum. The test method is described in L. H. Schmidt, Trans. R. Soc. Trop. Med Hyg. 67 446 (1973).

[3] = system: chloroquine-quinine-resistant, pyrimethamine-susceptible Vietnam Oak Knoll strain of P. Falciparum; experiment: Owl monkey infection with P. falciparum trophozoites, Vietnam Oak Knoll strain; format: in vivo, owl monkeys; conditions: for activity relative to amodiaquine in clearing parasites: Oak Knoll strain; for cleared the parasitemia / curative: Vietnam Oak Knoll strain; for cleared the parasitemia: orally at 1.0 mg/kg/day for three days; for activity relative to amodiaquine as curative agents: Oak Knoll strains of the malaria parasite; for curative: orally at 2.0 mg/kg/day for a three day period
Procedure: as §1

[4] = system: pyrimethamine-resistant Uganda Palo Alto strain of P. Falciparum; experiment: Owl monkey infection with P. falciparum trophozoites, Uganda Palo Alto strain; format: in vivo, owl monkeys; conditions: orally at 1.0 mg/kg/day for three days
Procedure: as §1

[5] = Burckhalter article, Tables VI and XI; cited from earlier work

Q: What does the source list for `CCN(CC)Cc1cc(Nc2ccnc3cc(Cl)ccc23)ccc1O` [Amodiaquine, reference compound]?
A: MST after single s.c. dose (extension of survival time over the controls) ([1]; dose 10 (dose unit not given)): 5.7 days; MST after single s.c. dose (extension of survival time over the controls) ([1]; dose 20 (dose unit not given)): 8.3 days; MST after single s.c. dose (extension of survival time over the controls) ([1]; dose 40 (dose unit not given)): 11.9 days; MST after single s.c. dose: animals cured (C) ([1]; dose 80 (dose unit not given)): 2C; MST after single s.c. dose: animals cured (C) ([1]; dose 160 (dose unit not given)): 5C; MST after single s.c. dose: animals cured (C) ([1]; dose 320 (dose unit not given)): 5C; MST after single s.c. dose: animals cured (C) ([1]; dose 640 (dose unit not given)): 5C

Q: What does the source list for `CCN(CC)Cc1cc(Nc2ccnc3cc(Cl)ccc23)cc(-c2ccc(Cl)cc2)c1O` [Example 2, 4'-chloro-5-[(7-chloro-4-quinolinyl)amino]-3-[(diethylamino)methyl][1,1'-biphenyl]-2-ol]?
A: MST after single s.c. dose (extension of survival time over the controls) ([1]; dose 10 (dose unit not given)): 14.2 days; MST after single s.c. dose: animals cured (C) ([1]; dose 10 (dose unit not given)): 2C; MST after single s.c. dose: animals cured (C) ([1]; dose 20 (dose unit not given)): 3C; MST after single s.c. dose: animals cured (C) ([1]; dose 40 (dose unit not given)): 4C; MST after single s.c. dose: animals cured (C) ([1]; dose 80 (dose unit not given)): 5C; MST after single s.c. dose: animals cured (C) ([1]; dose 160 (dose unit not given)): 5C; MST after single s.c. dose: animals cured (C) ([1]; dose 320 (dose unit not given)): 5C; MST after single s.c. dose: animals cured (C) ([1]; dose 640 (dose unit not given)): 5C; cleared the parasitemia [2]: cleared the parasitemia; activity relative to amodiaquine in clearing parasites [3]: twenty times the activity of amodiaquine; cleared the parasitemia [3]: cleared the parasitemia; cleared the parasitemia [4]: cleared the parasitemia

Q: For `CC(C)(C)NCc1cc(Nc2cc[n+]([O-])c3cc(Cl)ccc23)cc(-c2ccc(Cl)cc2)c1O` [4—Cl, H, NHC(CH3)3, 1, 4'-chloro-5-[(7-chloro-4-quinolinyl)aminoj-3-[[1,1-dimethylethyl)amino]methyl]-[1,1'-biphenyl]-2-ol-1-oxide], which curative [2] is on record?
A: Its curative is “curative”.

Q: What about the “activity relative to amodiaquine as curative agents” value [3] of the same compound?
A: Its value is “twenty times the activity of amodiaquine”.

Q: And the curative [3]?
A: Its curative is “curative”.

Q: Which cleared the parasitemia [2] does the source give for `CC(C)(C)NCc1cc(Nc2ccnc3cc(Cl)ccc23)cc(-c2ccc(Cl)cc2)c1O` [Example 3, 4'-chloro-5-[(7-chloro-4-quinolinyl)amino]-3-[[(1,1-dimethylethyl)amino]methyl][1,1'-biphenyl]-2-ol] here?
A: The cleared the parasitemia was “cleared the parasitemia”.

Q: What about the “activity relative to amodiaquine in clearing parasites” value [3] of the same compound?
A: Its value is “twenty times the activity of amodiaquine”.

Q: And the cleared the parasitemia [3]?
A: Its cleared the parasitemia is “cleared the parasitemia”.

Q: And the cleared the parasitemia [4]?
A: Its cleared the parasitemia is “cleared the parasitemia”.

Q: What does the source list for `CCN(CC)Cc1cc(Nc2cc[n+]([O-])c3cc(Cl)ccc23)cc(-c2ccc(Cl)cc2)c1O` [Example 1]?
A: curative [2]: curative; activity relative to amodiaquine as curative agents [3]: twenty times the activity of amodiaquine; curative [3]: curative

Q: Which quinine equivalent [5] does the source give for `C=CCc1cc(Nc2ccnc3cc(Cl)ccc23)cc(CN(CC)CC)c1O` [SN-11991] here?
A: Its quinine equivalent is 10.

Q: Which quinine equivalent [5] does the source give for `CCN(CC)Cc1cc(Nc2ccnc3cc(Cl)ccc23)cc(Cl)c1O` [SN-13729] here?
A: The quinine equivalent was 12.

Reference: patent EP0027679B1, “Substituted-5-((7-chloro-4-quinolinyl)amino)-3-(amino-methyl)-(1,1'-biphenyl)-2-ol compounds; processes for their production; and pharmaceutical compositions containing the compounds” (WARNER-LAMBERT COMPANY, priority 1979, dated 1981)
